According to patent publication US12448394B2, “Heterocyclic pyrazole derivatives as type III receptor tyrosine kinase inhibitors” (DEVELOPMENT CENTER FOR BIOTECHNOLOGY, priority 2019, dated 2025):
Read-outs that look alike come from different tables or passages of the source.

Assays:
[1] = system: Molm-14 human acute myeloid leukemia cell with FLT3-ITD mutation; experiment: Molm-14 cell proliferation assay (CellTiter 96); assay type: cell-based; details: Molm-14 cells, 72 hours treatment, CellTiter96, read-out: anti-proliferation activity Molm-14 (FLT3-ITD), IC50 ranking
Procedure, shortened: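 Molm-14 (FLT3-ITD AML) cells in RPMI 1640 with 10% heat-inactivated FBS were seeded at 25000 cells/well, incubated overnight at 37° C, 5% CO2, then treated with increasing compound concentrations for 72 hours. Viability was read as absorbance at 490 nm after 2˜4 hours with CellTiter96 AQueous One reagent.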

[2] = biological target: T1, MET kinase (Homo sapiens, UniProt P08581); experiment: MET kinase assay (AlphaScreen, counter screen); assay type: biochemical; details: read-out: Ranking of IC50 values, MET
T1 construct: purchased SignalChem
Procedure, shortened: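 Recombinant MET kinase (1 ng) phosphorylated biotinylated poly(Glu4:Tyr1) with […] ATP (so in the source) in MOPS pH 7.0 buffer with 10 mM MgCl2, 45 min at 30 °C, stopped with EDTA. Product read by AlphaScreen; IC50 from serial dilutions run in duplicate.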

[3] = system: THP-1 human acute monocytic leukemia cell with NRAS G12D mutation; experiment: THP-1 cell proliferation assay (counter screen); assay type: cell-based; details: THP-1 cells, 72 hours treatment, CellTiter96, read-out: anti-proliferation activity THP-1 NRAS N12D, IC50 ranking
Procedure, shortened: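 THP-1 cells (NRAS G12D, growth independent of class III RTK signaling) seeded at 5000 cells/well overnight, then exposed to increasing compound concentrations for 72 h at 37° C, 5% CO2. Viability read by CellTiter96 AQueous One reagent (2–4 h) as absorbance at 490 nm.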

[4] = system: HCC827 NSCLC cell with EGFR exon 19 deletion mutation; experiment: HCC827 cell proliferation assay (counter screen); assay type: cell-based, human; details: HCC827 cells, 72 hours treatment, CellTiter96, read-out: anti-proliferation activity HCC827 EGFR Exon19 del, IC50 ranking
Procedure, shortened: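 HCC827 cells (EGFR exon 19 deletion) were seeded at 8000 cells/well in RPMI1640 with 10% FBS, then exposed to increasing compound concentrations for 72 h at 37 °C. Viability was read by CellTiter96 AQueous One (MTS), absorbance 490 nm after 2–4 h.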

[5] = system: A375 melanoma cell with BRAF V600E mutation; experiment: A375 cell proliferation assay (counter screen); assay type: cell-based, human; details: 72 hours treatment, CellTiter96, read-out: anti-proliferation activity A375 BRAF V600E, IC50 ranking
Procedure, shortened: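 A375 cells (BRAF V600E) seeded at 2000 cells/well in DMEM with 10% FBS, settled overnight at 37° C, 5% CO2, then exposed to increasing compound concentrations for 72 hours. Viability read by MTS-type CellTiter96 AQueous reagent, absorbance at 490 nm after 2–4 hours.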

[6] = system: phosphorylation of FLT3 and its down-stream effector STAT5; experiment: Western blotting of p-FLT3 and p-STAT5 in MV4-11 cells; assay type: cell-based; details: Homo sapiens; at 30 nM treatment, 3 hours, FLT3-ITD positive MV4-11 leukemia cells; read-out: inhibition activity against phosphorylation of FLT3 and its down-stream effector STAT5
Procedure, shortened: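 MV4-11 cells held overnight in IMDM with 0.1% FBS, then 3 million cells treated with compound for 3 h. Whole lysates immunoblotted for p-FLT3 (Tyr-591), p-STAT5 (Tyr-694) and actin. Band intensities at 30 nM compared to DMSO control; % inhibition = (1 − relative intensity) × 100.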

[7] = Homo sapiens, A-375, A375 cells

T1 sequence (P08581 25-1390): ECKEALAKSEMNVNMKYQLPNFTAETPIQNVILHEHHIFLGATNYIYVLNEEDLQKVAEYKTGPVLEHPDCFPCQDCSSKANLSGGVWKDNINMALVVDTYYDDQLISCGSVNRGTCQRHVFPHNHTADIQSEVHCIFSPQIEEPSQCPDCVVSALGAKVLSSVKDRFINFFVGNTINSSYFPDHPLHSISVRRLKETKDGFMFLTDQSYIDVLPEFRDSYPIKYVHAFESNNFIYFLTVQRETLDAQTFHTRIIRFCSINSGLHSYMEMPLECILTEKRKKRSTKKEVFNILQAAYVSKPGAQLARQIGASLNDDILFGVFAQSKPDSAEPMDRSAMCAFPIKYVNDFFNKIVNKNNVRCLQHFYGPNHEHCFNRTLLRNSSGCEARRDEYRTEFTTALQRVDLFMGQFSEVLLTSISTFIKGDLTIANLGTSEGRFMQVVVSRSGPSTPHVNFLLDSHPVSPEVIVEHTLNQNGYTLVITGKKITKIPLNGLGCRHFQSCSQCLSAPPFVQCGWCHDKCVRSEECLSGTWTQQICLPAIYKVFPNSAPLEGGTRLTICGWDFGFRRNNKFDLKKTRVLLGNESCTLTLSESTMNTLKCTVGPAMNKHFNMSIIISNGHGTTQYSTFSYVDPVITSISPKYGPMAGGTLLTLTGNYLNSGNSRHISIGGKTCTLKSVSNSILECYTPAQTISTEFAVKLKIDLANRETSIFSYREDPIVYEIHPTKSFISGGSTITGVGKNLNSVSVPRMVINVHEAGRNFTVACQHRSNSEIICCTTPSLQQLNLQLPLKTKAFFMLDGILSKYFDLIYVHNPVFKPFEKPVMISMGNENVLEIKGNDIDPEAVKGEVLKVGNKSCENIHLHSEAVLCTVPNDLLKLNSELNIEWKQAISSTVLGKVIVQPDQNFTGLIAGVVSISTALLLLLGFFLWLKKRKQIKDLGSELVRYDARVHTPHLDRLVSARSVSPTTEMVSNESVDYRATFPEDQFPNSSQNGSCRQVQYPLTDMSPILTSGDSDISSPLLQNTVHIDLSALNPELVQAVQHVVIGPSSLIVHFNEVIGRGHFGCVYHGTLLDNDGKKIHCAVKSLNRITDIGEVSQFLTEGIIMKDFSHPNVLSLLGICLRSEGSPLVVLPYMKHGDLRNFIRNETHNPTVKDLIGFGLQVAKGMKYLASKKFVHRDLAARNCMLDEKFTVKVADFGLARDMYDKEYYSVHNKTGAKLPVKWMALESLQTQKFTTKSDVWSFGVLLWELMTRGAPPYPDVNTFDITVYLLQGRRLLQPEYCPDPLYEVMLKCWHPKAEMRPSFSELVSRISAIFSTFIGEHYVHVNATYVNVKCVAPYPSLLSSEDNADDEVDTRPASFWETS

| Structure (SMILES) | IC50 ([1]; Homo sapiens) | IC50 [2] | IC50 [1] | IC50 ([3]; Homo sapiens) | IC50 ([4]; Homo sapiens) | IC50 [5, 7] | inhibition at 0.03 µM [6] | IC50 [3] | IC50 [4] | IC50 ([5]; A375 cells) |
| --- | --- | --- | --- | --- | --- | --- | --- | --- | --- | --- |
| CN1CCN(C(=O)c2ccc(-c3cc4c(s3)Cc3c(-c5ccc6cnn(C)c6c5)n[nH]c3-4)cc2)CC1 [Compound 15, (4-(3-(1-methyl-1H-indazol-6-yl)-1,4-dihydrothieno[2′,3′:4,5]cyclopenta[1,2-c]pyrazol-6-yl)phenyl)(4-methyl-piperazin-1-yl)methanone] | < 30 nM | > 1000 nM |  | > 10000 nM | > 10000 nM | > 10000 nM | > 50% |  |  |  |
| Cn1ncc2ccc(-c3n[nH]c4c3Cc3sc(-c5ccc(CN6CCOCC6)c(F)c5)cc3-4)cc21 [Compound 25, 4-(2-fluoro-4-(3-(1-methyl-1H-indazol-6-yl)-1,4-dihydrothieno[2′,3′:4,5]cyclopenta[1,2-c]pyrazol-6-yl)benzyl)morpholine] | 30 to 100 nM | > 1000 nM |  | > 10000 nM | > 10000 nM | > 10000 nM | > 50% |  |  |  |
| Cn1ncc2ccc(-c3n[nH]c4c3Cc3sc(-c5ccc(C(=O)N6CCCC6)cc5)cc3-4)cc21 [Compound 38, (4-(3-(1-methyl-1H-indazol-6-yl)-1,4-dihydro-thieno[2′,3′:4,5]cyclopenta [1,2-c]pyrazol-6-yl)phenyl)(pyrrolidin-1-yl) methanone] | 30 to 100 nM | > 1000 nM |  | > 10000 nM | > 10000 nM | > 10000 nM | > 50% |  |  |  |
| Cn1ncc2ccc(-c3n[nH]c4c3Cc3sc(-c5ccc(C(=O)N6CCCCC6)cc5)cc3-4)cc21 [Compound 34, (4-(3-(1-methyl-1H-indazol-6-yl)-1,4-dihydro-thieno[2′,3′:4,5]cyclopenta [1,2-c]pyrazol-6-yl)phenyl)(piperidin-1-yl) methanone] | 30 to 100 nM | > 1000 nM |  | > 10000 nM | > 10000 nM | > 10000 nM | > 50% |  |  |  |
| COc1cc(-c2cc3c(s2)Cc2c(-c4ccc5cnn(C)c5c4)n[nH]c2-3)ccc1CN1CCOCC1 [Compound 24, 4-(2-methoxy-4-(3-(1-methyl-1H-indazol-6-yl)-1,4-dihydrothieno[2′,3′:4,5]cyclopenta[1,2-c]pyrazol-6-yl)benzyl)morpholine] | 30 to 100 nM | > 1000 nM |  | > 10000 nM | > 10000 nM | > 10000 nM | > 50% |  |  |  |
| Cc1ccc(-c2cc3c(s2)Cc2c(-c4ccc5cnn(C)c5c4)n[nH]c2-3)cn1 [Compound 33, 3-(1-methyl-1H-indazol-6-yl)-6-(6-methylpyridin-3-yl)-1,4-dihydrothieno [2′,3′:4,5]cyclopenta [1,2-c]pyrazole] |  | > 1000 nM | 30 to 100 nM |  |  |  | > 50% | > 10000 nM | > 10000 nM | > 10000 nM |
| Cn1ncc2ccc(-c3n[nH]c4c3Cc3sc(-c5ccc(C(=O)N6CCOCC6)cc5)cc3-4)cc21 [Compound 21, (4-(3-(1-methyl-1H-indazol-6-yl)-1,4-dihydro-thieno[2′,3′:4,5]cyclopenta [1,2-c]pyrazol-6-yl)phenyl) (morpholino)methanone] | < 30 nM | > 1000 nM |  | > 10000 nM | > 10000 nM | > 10000 nM | > 50% |  |  |  |
| Cn1ncc2ccc(-c3n[nH]c4c3Cc3sc(-c5ccc(CCN6CCOCC6)cc5)cc3-4)cc21 [Compound 22, 4-(4-(3-(1-methyl-1H-indazol-6-yl)-1,4-dihydro-thieno[2′,3′:4,5]cyclopenta [1,2-c]pyrazol-6-yl)phenethyl)morpholine] | 30 to 100 nM | > 1000 nM |  | > 10000 nM | > 10000 nM | > 10000 nM | > 50% |  |  |  |

Continued, in another order:

| IC50 ([1]; Homo sapiens) | IC50 [2] | IC50 [1] | Structure (SMILES) | IC50 ([3]; Homo sapiens) | IC50 ([4]; Homo sapiens) | IC50 [5, 7] | inhibition at 0.03 µM [6] | IC50 [3] | IC50 [4] | IC50 ([5]; A375 cells) |
| --- | --- | --- | --- | --- | --- | --- | --- | --- | --- | --- |
| 100 to 300 nM | > 1000 nM |  | CC(C)n1ncc2ccc(-c3n[nH]c4c3Cc3sc(-c5ccc(CN6CCOCC6)cc5)cc3-4)cc21 [Compound 42, 4-(4-(3-(1-isopropyl-1H-indazol-6-yl)-1,4-dihydro-thieno[2′,3′:4,5]cyclopenta [1,2-c]pyrazol-6-yl)benzyl)morpholine] | > 10000 nM | > 10000 nM | > 10000 nM | > 50% |  |  |  |
| < 30 nM | > 1000 nM |  | Cn1ncc2ccc(-c3n[nH]c4c3Cc3sc(-c5ccc(S(=O)(=O)N6CCOCC6)cc5)cc3-4)cc21 [Compound 47, 4-((4-(3-(1-methyl-1H-indazol-6-yl)-1,4-dihydro-thieno[2′,3′:4,5]cyclopenta [1,2-c]pyrazol-6-yl)phenyl)sulfonyl) morpholine] | > 10000 nM | > 10000 nM | > 10000 nM | > 50% |  |  |  |
| < 30 nM | > 1000 nM |  | Cn1ncc2ccc(-c3n[nH]c4c3Cc3sc(-c5cnc(N)nc5)cc3-4)cc21 [Compound 45, 5-(3-(1-methyl-1H-indazol-6-yl)-1,4-dihydrothieno [2′,3′:4,5]cyclopenta[l,2-c]pyrazol-6-yl)pyrimidin-2-amine] | > 10000 nM | > 10000 nM | > 10000 nM | > 50% |  |  |  |
| < 30 nM | > 1000 nM |  | Cn1ncc2ccc(-c3n[nH]c4c3Cc3sc(C5CCN(C(=O)CN6CCOCC6)CC5)cc3-4)cc21 [Compound 98, 1-(4-(3-(1-methyl-1H-indazol-6-yl)-1,4-dihydro-thieno[2′,3′:4,5]cyclopenta [1,2-c]pyrazol-6-yl)piperidin-1-yl)-2-morpholinoethan-1-one] | 300 to 1000 nM | > 10000 nM | 1000 to 10000 nM | > 50% |  |  |  |
| < 30 nM | > 1000 nM |  | Cn1ncc2ccc(-c3n[nH]c4c3Cc3sc(N5CCOCC5)cc3-4)cc21 [Compound 78, 4-(3-(1-methyl-1H-indazol-6-yl)-1,4-dihydro-thieno[2′,3′:4,5]cyclopenta [1,2-c]pyrazol-6-yl) morpholine] | > 10000 nM | > 10000 nM | 1000 to 10000 nM | > 50% |  |  |  |
| 30 to 100 nM | > 1000 nM |  | Cn1ncc2ccc(-c3n[nH]c4c3Cc3sc(C#CCN5CCOCC5)cc3-4)cc21 [Compound 71, 4-(3-(3-(1-methyl-1H-indazol-6-yl)-1,4-dihydro-thieno[2′,3′:4,5]cyclopenta [1,2-c]pyrazol-6-yl)prop-2-yn-1-yl)morpholine] | 1000 to 10000 nM | > 10000 nM | 1000 to 10000 nM | > 50% |  |  |  |
| 100 to 300 nM | > 1000 nM |  | Cn1ncc2ccc(-c3n[nH]c4c3Cc3sc(C5CCN(C(=O)OC(C)(C)C)CC5)cc3-4)cc21 [Compound 58, tert-butyl-4-(3-(1-methyl-1H-indazol-6-yl)-1,4-dihydrothieno[2′,3′:4,5]cyclopenta[1,2-c]pyrazol-6-yl)piperidine-1-carboxylate] | > 10000 nM | > 10000 nM | > 10000 nM | > 50% |  |  |  |
| < 30 nM | 300 to 1000 nM |  | Cn1ncc2ccc(-c3n[nH]c4c3Cc3sc(-c5ccc(CN6CCC(N7CCOCC7)CC6)cc5)cc3-4)cc21 [Compound 80, 4-(1-(4-(3-(1-methyl-1H-indazol-6-yl)-1,4-dihydro-thieno[2′,3′:4,5]cyclopenta [1,2-c]pyrazol-6-yl)benzyl)piperidin-4-yl) morpholine] | > 10000 nM | > 10000 nM | > 10000 nM | > 50% |  |  |  |
